Results: ChEMBL document CHEMBL3046117, “Synthesis of 1-(4-((E)-3-arylacryloyl) phenyl)-3,4-dibromo-1H-pyrrole-2,5-diones and screening for anti-Candida and antituberculosis activity” (2012)
In brackets after ≈: the same amount, converted by molar mass.

Legend:
Candida albicans = assay: Antifungal activity against Candida albicans by dilution method; format: functional
[1] = system: Mycobacterium tuberculosis; assay: Antimycobacterial activity against Mycobacterium tuberculosis H37Rv by MABA method; format: functional

Compound	MIC (Candida albicans) [µg/mL]	MIC90 [1] [µg/mL]
Cc1ccc(/C=C/C(=O)c2ccc(N3C(=O)C(Br)=C(Br)C3=O)cc2)cc1	1000 (≈ 2100 µM)	500 (≈ 1050 µM)
O=C(/C=C/c1ccc(O)cc1)c1ccc(N2C(=O)C(Br)=C(Br)C2=O)cc1	150 (≈ 314 µM)	60 (≈ 126 µM)
O=C(/C=C/c1ccccc1)c1ccc(N2C(=O)C(Br)=C(Br)C2=O)cc1	250 (≈ 542 µM)	500 (≈ 1080 µM)
O=C(/C=C/c1ccc(Cl)cc1)c1ccc(N2C(=O)C(Br)=C(Br)C2=O)cc1	250 (≈ 504 µM)	100 (≈ 202 µM)
COC1=CC(=O)C[C@@H](C)[C@]12Oc1c(Cl)c(OC)cc(OC)c1C2=O [GRISEOFULVIN]	500 (≈ 1420 µM)	
NNC(=O)c1ccncc1 [ISONIAZID]		0.2 (≈ 1.46 µM)
COc1ccc(/C=C/C(=O)c2ccc(N3C(=O)C(Br)=C(Br)C3=O)cc2)cc1OC	500 (≈ 959 µM)	500 (≈ 959 µM)
COc1ccc(/C=C/C(=O)c2ccc(N3C(=O)C(Br)=C(Br)C3=O)cc2)cc1	1000 (≈ 2040 µM)	500 (≈ 1020 µM)
O=C(/C=C/c1ccccc1Cl)c1ccc(N2C(=O)C(Br)=C(Br)C2=O)cc1	1000 (≈ 2020 µM)	250 (≈ 504 µM)
O=C(/C=C/c1cccc([N+](=O)[O-])c1)c1ccc(N2C(=O)C(Br)=C(Br)C2=O)cc1	250 (≈ 494 µM)	200 (≈ 395 µM)
COc1ccc(/C=C/C(=O)c2ccc(N3C(=O)C(Br)=C(Br)C3=O)cc2)cc1[N+](=O)[O-]	1000 (≈ 1870 µM)	1000 (≈ 1870 µM)
O=C(/C=C/c1ccc(Cl)cc1Cl)c1ccc(N2C(=O)C(Br)=C(Br)C2=O)cc1	500 (≈ 943 µM)	500 (≈ 943 µM)
O=C(/C=C/c1ccccc1O)c1ccc(N2C(=O)C(Br)=C(Br)C2=O)cc1	100 (≈ 210 µM)	50 (≈ 105 µM)
NYSTATIN	100	
